# Where two headings read alike, the source gives them in different places.
# Tested on: patients with advanced TP53 wild-type (WT) leukemias
smiles,measurement,setting,value
"COc1ncc(-c2nc3c(n2C(C)C)[C@H](c2ccc(Cl)cc2)N(c2cc(Cl)cn(C)c2=O)C3=O)c(OC)n1 [HDM201, (S)-5-(5-Chloro-1-methyl-2-oxo-1,2-dihydro-pyridin-3-yl)-6-(4-chloro-phenyl)-2-(2,4-dimethoxy-pyrimidin-5-yl)-1-isopropyl-5,6-dihydro-1H-pyrrolo[3,4-d]imidazol-4-one]",AE: Haemoglobin Decreased,"Regimen 2A N = 7, Grade 3/4",0 n (%)
same,AE: Headache,"Regimen 2A N = 7, Grade 3/4",0 n (%)
same,AE: Hyperbilirubinaemia,"Regimen 2A N = 7, Grade 3/4",0 n (%)
same,AE: Hyperglycaemia,"Regimen 2A N = 7, Grade 3/4",0 n (%)
same,AE: Hyperkalaemia,"Regimen 2A N = 7, Grade 3/4",0 n (%)
same,AE: Hyperphosphataemia,"Regimen 2A N = 7, Grade 3/4",0 n (%)
same,AE: Hyperuricaemia,"Regimen 2A N = 7, Grade 3/4",0 n (%)
same,AE: Hypoalbuminaemia,"Regimen 2A N = 7, Grade 3/4",0 n (%)
same,AE: Hypocalcaemia,"Regimen 2A N = 7, Grade 3/4",0 n (%)
same,AE: Hypokalaemia,"Regimen 2A N = 7, Grade 3/4",0 n (%)
same,AE: Hypomagnesaemia,"Regimen 2A N = 7, Grade 3/4",0 n (%)
same,AE: Hyponatraemia,"Regimen 2A N = 7, Grade 3/4",0 n (%)
same,AE: Hypophosphataemia,"Regimen 2A N = 7, Grade 3/4",0 n (%)
same,AE: Hypotension,"Regimen 2A N = 7, Grade 3/4",0 n (%)
same,AE: Infection,"Regimen 2A N = 7, Grade 3/4",0 n (%)
same,AE: Infective Glossitis,"Regimen 2A N = 7, Grade 3/4",0 n (%)
same,AE: Iron Overload,"Regimen 2A N = 7, Grade 3/4",0 n (%)
same,AE: Leukopenia,"Regimen 2A N = 7, Grade 3/4",0 n (%)
same,AE: Lip Oedema,"Regimen 2A N = 7, Grade 3/4",0 n (%)
same,AE: Lipase Increased,"Regimen 2A N = 7, Grade 3/4",0 n (%)
same,AE: Macular Oedema,"Regimen 2A N = 7, Grade 3/4",0 n (%)
same,AE: Malaise,"Regimen 2A N = 7, Grade 3/4",0 n (%)
same,AE: Mouth Haemorrhage,"Regimen 2A N = 7, Grade 3/4",0 n (%)
same,AE: Nausea,"Regimen 2A N = 7, Grade 3/4",0 n (%)
same,AE: Neutropenia/Neutrophil Count Decreased,"Regimen 2A N = 7, Grade 3/4",1 (14.3) n (%)
same,AE: Oedema,"Regimen 2A N = 7, Grade 3/4",0 n (%)
same,AE: Oedema Peripheral,"Regimen 2A N = 7, Grade 3/4",0 n (%)
same,AE: Oral Disorder,"Regimen 2A N = 7, Grade 3/4",0 n (%)
same,AE: Pain In Extremity,"Regimen 2A N = 7, Grade 3/4",0 n (%)
same,AE: Pancytopenia,"Regimen 2A N = 7, Grade 3/4",0 n (%)
same,AE: Pneumonia,"Regimen 2A N = 7, Grade 3/4",0 n (%)
same,AE: Pollakiuria,"Regimen 2A N = 7, Grade 3/4",0 n (%)
same,AE: Pyrexia,"Regimen 2A N = 7, Grade 3/4",0 n (%)
same,AE: Rash,"Regimen 2A N = 7, Grade 3/4",0 n (%)
same,AE: Rash Erythematous,"Regimen 2A N = 7, Grade 3/4",0 n (%)
same,AE: Rash Papular,"Regimen 2A N = 7, Grade 3/4",0 n (%)
same,AE: Rectal Haemorrhage,"Regimen 2A N = 7, Grade 3/4",0 n (%)
same,AE: Renal Failure,"Regimen 2A N = 7, Grade 3/4",0 n (%)
same,AE: Skin Exfoliation,"Regimen 2A N = 7, Grade 3/4",0 n (%)
same,AE: Stomatitis,"Regimen 2A N = 7, Grade 3/4",0 n (%)
same,AE: Subarachnoid Haemorrhage,"Regimen 2A N = 7, Grade 3/4",0 n (%)
same,AE: Thrombocytopenia/Platelet Count Decreased,"Regimen 2A N = 7, Grade 3/4",2 (28.6) n (%)
same,AE: Total,"Regimen 2A N = 7, Grade 3/4",3 (42.9) n (%)
same,AE: Tumour Lysis Syndrome,"Regimen 2A N = 7, Grade 3/4",1 (14.3) n (%)
same,AE: Vomiting,"Regimen 2A N = 7, Grade 3/4",0 n (%)
same,AE: Weight Decreased,"Regimen 2A N = 7, Grade 3/4",0 n (%)
same,AE: White Blood Cell Count Decreased,"Regimen 2A N = 7, Grade 3/4",1 (14.3) n (%)
same,AE: Abdominal Discomfort,"Regimen 2C N = 8, All Grades",0 n (%)
same,AE: Abdominal Pain,"Regimen 2C N = 8, All Grades",0 n (%)
same,AE: Abdominal Pain Upper,"Regimen 2C N = 8, All Grades",0 n (%)
same,AE: Amylase Increased,"Regimen 2C N = 8, All Grades",0 n (%)
same,AE: Anaemia,"Regimen 2C N = 8, All Grades",5 (62.5) n (%)
same,AE: Arthralgia,"Regimen 2C N = 8, All Grades",0 n (%)
same,AE: Asthenia,"Regimen 2C N = 8, All Grades",2 (25.0) n (%)
same,AE: Atrial Fibrillation,"Regimen 2C N = 8, All Grades",0 n (%)
same,AE: Atypical Pneumonia,"Regimen 2C N = 8, All Grades",0 n (%)
same,AE: Balanitis Candida,"Regimen 2C N = 8, All Grades",0 n (%)
same,AE: Blood Alkaline Phosphatase Increased,"Regimen 2C N = 8, All Grades",0 n (%)
same,AE: Blood Bilirubin Increased,"Regimen 2C N = 8, All Grades",0 n (%)
same,AE: Blood Creatinine Increased,"Regimen 2C N = 8, All Grades",1 (12.5) n (%)
same,AE: Blood Phosphorus Increased,"Regimen 2C N = 8, All Grades",0 n (%)
same,AE: Blood Uric Acid Increased,"Regimen 2C N = 8, All Grades",0 n (%)
same,AE: Bone Marrow Failure,"Regimen 2C N = 8, All Grades",0 n (%)
same,AE: C-Reactive Protein Increased,"Regimen 2C N = 8, All Grades",0 n (%)
same,AE: Cardiac Failure,"Regimen 2C N = 8, All Grades",0 n (%)
same,AE: Cellulitis,"Regimen 2C N = 8, All Grades",0 n (%)
same,AE: Chronic Graft Versus Host Disease,"Regimen 2C N = 8, All Grades",0 n (%)
same,AE: Conjunctival Haemorrhage,"Regimen 2C N = 8, All Grades",0 n (%)
same,AE: Constipation,"Regimen 2C N = 8, All Grades",1 (12.5) n (%)
same,AE: Cough,"Regimen 2C N = 8, All Grades",0 n (%)
same,AE: Cystitis Viral,"Regimen 2C N = 8, All Grades",0 n (%)
same,AE: Cytomegalovirus Infection,"Regimen 2C N = 8, All Grades",0 n (%)
same,AE: Decreased Appetite,"Regimen 2C N = 8, All Grades",4 (50.0) n (%)
same,AE: Diarrhoea,"Regimen 2C N = 8, All Grades",2 (25.0) n (%)
same,AE: Dyspepsia,"Regimen 2C N = 8, All Grades",0 n (%)
same,AE: Dyspnoea,"Regimen 2C N = 8, All Grades",0 n (%)
same,AE: Epistaxis,"Regimen 2C N = 8, All Grades",1 (12.5) n (%)
same,AE: Fatigue,"Regimen 2C N = 8, All Grades",2 (25.0) n (%)
same,AE: Febrile Neutropenia,"Regimen 2C N = 8, All Grades",3 (37.5) n (%)
same,AE: Gamma-Glutamyltransferase Increased,"Regimen 2C N = 8, All Grades",0 n (%)
same,AE: General Physical Health Deterioration,"Regimen 2C N = 8, All Grades",0 n (%)
same,AE: Gingival Bleeding,"Regimen 2C N = 8, All Grades",0 n (%)
same,AE: Graft Versus Host Disease,"Regimen 2C N = 8, All Grades",0 n (%)
same,AE: Haemoglobin Decreased,"Regimen 2C N = 8, All Grades",0 n (%)
same,AE: Headache,"Regimen 2C N = 8, All Grades",0 n (%)
same,AE: Hyperbilirubinaemia,"Regimen 2C N = 8, All Grades",0 n (%)
same,AE: Hyperglycaemia,"Regimen 2C N = 8, All Grades",0 n (%)
same,AE: Hyperkalaemia,"Regimen 2C N = 8, All Grades",0 n (%)
same,AE: Hyperphosphataemia,"Regimen 2C N = 8, All Grades",1 (12.5) n (%)
same,AE: Hypoalbuminaemia,"Regimen 2C N = 8, All Grades",0 n (%)
same,AE: Hypocalcaemia,"Regimen 2C N = 8, All Grades",0 n (%)
same,AE: Hypokalaemia,"Regimen 2C N = 8, All Grades",0 n (%)
same,AE: Hypomagnesaemia,"Regimen 2C N = 8, All Grades",0 n (%)
same,AE: Hyponatraemia,"Regimen 2C N = 8, All Grades",0 n (%)
same,AE: Hypophosphataemia,"Regimen 2C N = 8, All Grades",0 n (%)
same,AE: Hypotension,"Regimen 2C N = 8, All Grades",0 n (%)
same,AE: Infection,"Regimen 2C N = 8, All Grades",0 n (%)
same,AE: Infective Glossitis,"Regimen 2C N = 8, All Grades",1 (12.5) n (%)
same,AE: Iron Overload,"Regimen 2C N = 8, All Grades",0 n (%)
same,AE: Leukopenia,"Regimen 2C N = 8, All Grades",0 n (%)
same,AE: Lip Oedema,"Regimen 2C N = 8, All Grades",0 n (%)
same,AE: Lipase Increased,"Regimen 2C N = 8, All Grades",0 n (%)
same,AE: Macular Oedema,"Regimen 2C N = 8, All Grades",0 n (%)
same,AE: Malaise,"Regimen 2C N = 8, All Grades",0 n (%)
same,AE: Mouth Haemorrhage,"Regimen 2C N = 8, All Grades",0 n (%)

# — patent US10966978B2, “Dose and regimen for HDM2-p53 interaction inhibitors” (Novartis AG, priority 2016, dated 2021)
